Positions count from the first letter of the chain named. pIC50: −log10 of the molar value. “Also recorded” adds a separate entry of the source. One block for each molecule: values may come before it. Where a SMILES comes first, the peptide text is derived from it. The star is where a group is joined. Palmitoyl = CCCCCCCCCCCCCCCC(=O)*
Columns and labels:
[1] = biological target: T1, PAR1 (Homo sapiens, UniProt P25116); assay: Inhibition of PAR1-dependent platelet Ca2+ signal; format: cell-based; settings: for inhibition of PAR1-dependent Ca2+ response: SFLLRN (or thrombin) after peptide pre-treatment
T1 construct: expressed in transfected cells
T1 sequence (P25116 22-425): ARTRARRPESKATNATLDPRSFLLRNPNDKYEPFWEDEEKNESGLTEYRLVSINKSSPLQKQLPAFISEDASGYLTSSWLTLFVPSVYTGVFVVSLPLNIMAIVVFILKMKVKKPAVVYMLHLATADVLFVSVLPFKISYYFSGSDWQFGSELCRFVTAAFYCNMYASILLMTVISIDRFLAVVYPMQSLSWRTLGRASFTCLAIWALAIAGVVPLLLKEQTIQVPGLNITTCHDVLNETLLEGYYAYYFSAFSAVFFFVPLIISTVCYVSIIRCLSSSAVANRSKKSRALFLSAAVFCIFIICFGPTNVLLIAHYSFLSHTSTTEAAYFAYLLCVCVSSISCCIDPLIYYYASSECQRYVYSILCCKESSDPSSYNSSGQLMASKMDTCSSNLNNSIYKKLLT
Procedure: (§1) Platelet Ca2+ measurements were performed as in Example 1.
(§2) The integrated Ca^2+ response for the individual treatments are relative to the full Ca^2+ responses for each agonist (100%) recorded in the absence of P4pal-10 (top trace).

[2] = biological target: T2, PAR4 (Homo sapiens, UniProt Q96RI0); assay: Inhibition of AYPGKF-induced human platelet aggregation; format: cell-based
T2 sequence (Q96RI0 18-385): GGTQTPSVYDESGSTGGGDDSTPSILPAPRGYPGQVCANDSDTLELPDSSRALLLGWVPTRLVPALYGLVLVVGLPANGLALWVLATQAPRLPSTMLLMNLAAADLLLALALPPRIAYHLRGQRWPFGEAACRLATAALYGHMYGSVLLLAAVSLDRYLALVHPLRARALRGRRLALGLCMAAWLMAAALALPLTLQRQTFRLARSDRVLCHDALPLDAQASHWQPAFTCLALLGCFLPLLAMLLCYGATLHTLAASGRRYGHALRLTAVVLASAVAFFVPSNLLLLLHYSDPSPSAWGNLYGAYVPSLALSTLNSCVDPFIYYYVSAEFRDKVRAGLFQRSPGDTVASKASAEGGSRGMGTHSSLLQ

[3] = biological target: T2, PAR4; assay: Inhibition of PAR4-dependent platelet Ca2+ signal (AYPGKF); format: cell-based
Procedure: as §1, §2

[4] = biological target: T3, cholecystokinin B (CCKB) (Homo sapiens, UniProt P32239); assay: InsP formation in COS7 cells expressing CCKB; format: cell-based; settings: relative to 300 nM CCK-8
T3 construct: expressed in transfected cells; host or cells: COS7, transient
T3 sequence (P32239 1-447): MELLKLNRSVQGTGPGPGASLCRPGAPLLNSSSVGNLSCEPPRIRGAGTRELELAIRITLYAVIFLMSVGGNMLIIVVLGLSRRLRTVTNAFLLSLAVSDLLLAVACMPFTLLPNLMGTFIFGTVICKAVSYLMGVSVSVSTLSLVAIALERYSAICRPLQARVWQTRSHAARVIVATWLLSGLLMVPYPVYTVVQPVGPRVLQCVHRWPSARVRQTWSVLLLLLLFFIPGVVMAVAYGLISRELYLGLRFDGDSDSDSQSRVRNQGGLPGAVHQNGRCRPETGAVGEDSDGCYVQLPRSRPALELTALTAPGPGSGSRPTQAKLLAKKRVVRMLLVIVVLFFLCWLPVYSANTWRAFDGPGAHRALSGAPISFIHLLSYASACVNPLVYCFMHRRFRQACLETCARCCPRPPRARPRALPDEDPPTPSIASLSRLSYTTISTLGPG

[5] = biological target: T4, S309P PAR1 (Homo sapiens, UniProt P25116, S309P); assay: InsP formation in COS7 cells expressing S309P PAR1 mutant; format: cell-based; settings: relative to wild type PAR1
T4 construct: expressed in transfected cells; host or cells: COS7, transient
T4 sequence (P25116 22-425 S309P): T1 sequence (P25116 22-425) with S288P

[6] = tested on: delta377 PAR1; assay: InsP formation in COS7 cells expressing delta377 (C-tail deleted) PAR1 mutant; format: cell-based, human; settings: relative to wild type PAR1
[7] = biological target: T5, somatostatin receptor (SSTR2) (Rattus norvegicus, UniProt P30680); assay: InsP formation in COS7 cells expressing SSTR2; format: cell-based; settings: relative to full response to 1 μM AGCKNFFWKTFTSC
T5 construct: expressed in transfected cells; host or cells: COS7, transient
T5 sequence (P30680 whole entry): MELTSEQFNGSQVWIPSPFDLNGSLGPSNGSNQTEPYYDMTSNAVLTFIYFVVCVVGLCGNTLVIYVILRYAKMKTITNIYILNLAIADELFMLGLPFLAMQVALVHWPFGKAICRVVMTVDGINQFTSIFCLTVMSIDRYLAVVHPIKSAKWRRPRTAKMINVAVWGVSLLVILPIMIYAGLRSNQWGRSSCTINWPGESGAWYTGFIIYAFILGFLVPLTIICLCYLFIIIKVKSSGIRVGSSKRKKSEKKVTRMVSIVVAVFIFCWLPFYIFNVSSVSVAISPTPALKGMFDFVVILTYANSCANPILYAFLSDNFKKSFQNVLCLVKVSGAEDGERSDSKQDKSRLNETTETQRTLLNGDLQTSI

[8] = tested on: platelets; assay: Platelet intracellular Ca2+, agonist activity of peptides
[9] = tested on: thrombin receptors on human platelets; assay: Inhibition of thrombin-induced human platelet aggregation; settings: 3 nM thrombin; LBS1-PE at 25 micromolar
[10] = 5 μM pepducin, SFLLRN followed by AYPGKF
[11] = 1.2-5 μM pepducin, AYPGKF first, then SFLLRN

Molecule: CCCCCCCCCCCCCCCC(=O)N[C@@H](CO)C(=O)NCC(=O)N[C@@H](CCCNC(=N)N)C(=O)N[C@@H](CCCNC(=N)N)C(=O)N[C@@H](Cc1ccc(O)cc1)C(=O)NCC(=O)N[C@@H](Cc1c[nH]cn1)C(=O)N[C@@H](C)C(=O)N[C@@H](CC(C)C)C(=O)N[C@@H](CCCNC(=N)N)C(N)=O [Pepducin P4pal-10] (Palmitoyl-SGRRYGHALR-NH2)
inhibition of PAR1 Ca2+ response [1, 10]: 36% | attenuation of PAR1 Ca2+ signal [1, 11]: 17-67% | pIC50 [2]: 6.00 to 6.30 | inhibition of PAR4 Ca2+ response [3, 10]: 97% | attenuation of PAR4 Ca2+ response [3, 11]: 50-80%

Molecule: CCCCCCCCCCCCCCCC(=O)N[C@@H](CO)C(=O)NCC(=O)N[C@@H](CO)C(=O)N[C@@H](CCCNC(=N)N)C(=O)N1CCC[C@H]1C(=O)N[C@H](C(=O)N[C@@H](CCC(N)=O)C(=O)N[C@@H](C)C(=O)N[C@@H](CCCCN)C(=O)N[C@@H](CC(C)C)C(=O)N[C@@H](CC(C)C)C(=O)N[C@@H](C)C(=O)N[C@@H](CCCCN)C(=O)N[C@@H](CCCCN)C(=O)N[C@@H](CCCNC(=N)N)C(=O)N[C@H](C(=O)N[C@H](C(=O)N[C@@H](Cc1ccccc1)C(N)=O)C(C)C)C(C)C)[C@@H](C)O [Bpal-18F] (Palmitoyl-SGSRPTQAKLLAKKRVVF-NH2)
Agonist Efficacy [4]: 13 ± 2%

loss of efficacy on S309P mutant [5]: 3.3 fold | loss of potency on S309P mutant [5]: 28 fold
Molecule: SFLLRN
shift of potency on delta377 mutant [6]: ~30 fold

Molecule: CCCCCCCCCCCCCCCC(=O)N[C@@H](CCCCN)C(=O)N[C@H](C(=O)N[C@@H](CCCNC(=N)N)C(=O)N[C@@H](CO)C(=O)N[C@@H](CO)C(=O)NCC(=O)N[C@H](C(=O)N[C@@H](CCCNC(=N)N)C(=O)N[C@H](C(=O)NCC(=O)N[C@@H](CO)C(=O)N[C@@H](CO)C(=O)N[C@@H](CCCCN)C(=O)N[C@@H](CCCNC(=N)N)C(=O)N[C@@H](CCCCN)C(=O)N[C@@H](CCCCN)C(=O)N[C@@H](CO)C(=O)N[C@@H](CCC(=O)O)C(=O)N[C@@H](CCCCN)C(=O)N[C@@H](CCCCN)C(=O)N[C@H](C(=O)N[C@H](C(=O)N[C@@H](Cc1ccccc1)C(N)=O)[C@@H](C)O)C(C)C)C(C)C)[C@@H](C)CC)C(C)C [Pepducin S2pal-23F] (Palmitoyl-KVRSSGIRVGSSKRKKSEKKVTF-NH2)
Agonist Efficacy [7]: 15 ± 4%

Molecule: CCCCCCCCCCCCCCCC(=O)N[C@@H](Cc1c[nH]cn1)C(=O)N[C@H](C(=O)N[C@@H](CC(C)C)C(=O)N[C@@H](C)C(=O)N[C@@H](C)C(=O)N[C@@H](CO)C(=O)NCC(=O)N[C@@H](CCCNC(=N)N)C(=O)N[C@@H](CCCNC(=N)N)C(=O)N[C@@H](Cc1ccc(O)cc1)C(=O)NCC(=O)N[C@@H](Cc1c[nH]cn1)C(=O)N[C@@H](C)C(=O)N[C@@H](CC(C)C)C(=O)N[C@@H](CCCNC(=N)N)C(N)=O)[C@@H](C)O [Pepducin P4pal-15] (Palmitoyl-HTLAASGRRYGHALR-NH2)
agonist activity, platelet intracellular Ca2+ [8]: had no agonist activity | inhibition of PAR1-dependent Ca2+ response [1]: without affecting SFLLRN | pIC50 [2]: 6.22 | inhibition of PAR4-dependent platelet aggregation ([2]; AYPGKF): effective inhibitor of platelet aggregation | inhibition of PAR4-dependent Ca2+ response ([3]; 3 micromolar pepducin, 200 Micromolar AYPGKF): fully antagonize PAR4 signaling; also recorded: blocked AYPGKF

Molecule: CCCCCCCCCCCCCCCC(=O)N[C@@H](CO)C(=O)NCC(=O)N[C@@H](CO)C(=O)N[C@@H](CCCNC(=N)N)C(=O)N1CCC[C@H]1C(=O)N[C@H](C(=O)N[C@@H](CCC(N)=O)C(=O)N[C@@H](C)C(=O)N[C@@H](CCCCN)C(=O)N[C@@H](CC(C)C)C(=O)N[C@@H](CC(C)C)C(=O)N[C@@H](C)C(=O)N[C@@H](CCCCN)C(=O)N[C@@H](CCCCN)C(=O)N[C@@H](CCCNC(=N)N)C(=O)N[C@H](C(=O)N[C@H](C(=O)N[C@@H](CCCNC(=N)N)C(N)=O)C(C)C)C(C)C)[C@@H](C)O [Bpal-18] (Palmitoyl-SGSRPTQAKLLAKKRVVR-NH2)
Agonist Efficacy [4]: 12 ± 3%

Molecule: PAFISEDASGYL-C (PAFISEDASGYLC) [LBS1]
inhibition of PAR1-dependent Ca2+ response [1]: relatively poor antagonist | inhibition of PAR1-dependent Ca2+ response ([1]; listed as LBS-1): poor antagonist | inhibition of aggregation [9]: did not inhibit
